Entries after “also recorded” stand apart in the source; their conditions may differ.
How the values were obtained:
[1] = test system: tau phosphorylation (tau-P) at the AT8 and PHF-1 sites; assay: Acute restraint stress-induced tau phosphorylation, Western blot of hippocampal extracts, CRF-R1 antagonist pretreatment; assay type: in vivo, mouse
Description: Acute restraint stress involved placing mice in ventilated 50 ml conical tubes for 30 min; repeated stress involved 14 consecutive daily exposures. Animals were killed at various intervals ranging from 20 min to 24 hr after stress. Control mice were handled comparably, but were not otherwise manipulated.
The small molecule, CRF-R1-selective antagonist, antalarmin (Webster et al., 1996), was administered at 20 mg/kg by intraperitoneal (ip) injection 20 min before stress exposure. All animals were handled twice daily for 28 d prior to experimentation, and received daily mock ip injections to minimize stress of injection at testing. […]
After sedation, the animals were decapitated and the hippocampus was rapidly dissected and frozen on dry ice. […] Protein concentrations were determined using a BCA Protein Assay Kit (Pierce Biotechnology, Rockford, Ill.). […] Primary antibodies were detected with either anti-mouse or rabbit horseradish peroxidase-linked secondary antibodies (1:1000 Calbiochem, San Diego, Calif.) and developed with an enhanced chemiluminescence Western blot detection kit (Supersignal West Pico, Pierce Biotechnology). Background subtraction was performed and quantitative band intensity readings were obtained using NIH Image software. […]

[2] = test system: PS/APP mouse AD model (amyloid plaques); assay: Amyloid plaque density in PS/APP transgenic mouse AD model with or without chronic variable stress; assay type: in vivo; conditions: antalarmin 40 mg/kg/d ip; for density of plaques in cortex and hippocampus: sacrificed end of fifth month
Excerpt: The PS/APP mouse line was originally purchased from another research laboratory. These mice express the Swedish familial AD mutation of human amyloid precursor protein (APP) (APPK670N,M671L; line Tg2576) and the familial AD mutation of presenilin-1 (PSEN1-dE9) (Jankowsky et al., 2001). Hemizygous double mutant PS/APP offspring and non-transgenic mice were used in experimentation, as it has been reported that homozygote lines of Tg2576 cannot be generated (McGowan et al., 1999). Genotypes were determined by PCR analysis of ear or tail DNA.
For acute stress experiments, CRFR1-selective small molecule antagonist, antalarmin (Webster et al., 1996), was administered at 20 mg/kg by intraperitoneal (ip) injection 20 min before stress exposure. All animals were handled twice daily for at least 14d prior to experimentation, and receive daily mock ip injections to minimize stress of injection at testing. Antalarmin was solubilized in equal volumes of absolute ethanol and Cremaphor EL (Sigma-Aldrich, St. Louis, Mo.), as described (Webster et al., 1996; Pernar et al., 2004). This stock solution was diluted in prewarmed (50° C.) distilled water and adjusted to a final concentration of 4 mg/ml immediately prior to injection. For chronic administration, antalarmin was administered twice daily via ip injection (Wong et al., 1999).
CVS involved daily exposure to either two brief or one sustained stressor over 15d. Brief stressors included elevated plus maze exposure (30 min), shaker stress (30 min on an orbital shaker at 100 rpm), ip hypertonic saline injection (0.4 ml of 1.5M saline), restraint (30 min), tail suspension (10 min) and forced swimming (10 min in RT water). […]
There was no evidence of tau pathology (tangle formation), nor was it expected to develop in animals at this early stage of disease progression. […] While it remains to be determined whether this effect will maintain in older animals, and whether drug and/or stress exposure will affect tau pathology, the results provide an additional endorsement for considering CRFR1 as a therapeutic target in AD.

[3] = test system: hippocampal tau-P (PHF-1 immunoreactivity); assay: Intracerebroventricular CRF injection, PHF-1 immunohistochemistry of hippocampus; assay type: in vivo, mouse; conditions: 0.5 μg CRF icv, 40 min after administration
Excerpt: CRF-R1−/− (U.S. Pat. No. 6,147,275) and CRF-R2−/− (U.S. Pat. No. 6,353,152) mice, along with age-matched wt controls (n=3/group), were anesthetized with isoflurane, and implanted stereotaxically with 26-ga guide cannulae (Plastics One, Wallingford, Conn.) aimed to terminate above the lateral ventricle. Cannulae were affixed to the skull with dental acrylic adhering to jeweler's screws partially driven into the skull, and sealed externally with stylets. After 7 d recovery, stylets were replaced with 33-ga injection cannulae, and 2 hr later the animals were remotely injected with 0.5 μg synthetic mouse/human CRF in […] saline, or vehicle alone, over ˜1 min. To approximate the time frame used in acute stress experiments, animals were killed 40 min after icy injection and perfused for immunohistochemistry, as above. CRF was generously provided by Dr. J. Rivier (Salk Institute).
Mice were perfused with 4% paraformaldehyde, as previously described (Bittencourt and Sawchenko, 2000). 30 μm-thick frozen sections were cut on a sliding microtome and stored at −20° C. in cryoprotectant solution (20% glycerol and 30% ethylene glycol in 0.1 M phosphate buffer) until use. Free-floating sections containing the hippocampus were used to detect tau-P with PHF-1 (1:500) in mouse tissues using Mouse-on-Mouse Immunodetection Kit reagents (Vector, Burlingame, Calif.) to avoid detection of endogenous mouse immunoglobulin. Endogenous peroxidase was quenched with 0.3% hydrogen peroxide, followed by 1% sodium borohydride to reduce free aldehydes. Reaction product was developed using a nickel-enhanced glucose oxidase method (Shu et al., 1988).
To determine whether CRF is capable of independently eliciting hippocampal tau-P, wt and CRF-R-deficient mice were implanted with lateral ventricular cannulae for icy injection. Resultant PHF-1 immunoreactivity was examined 40 min after administration of CRF (0.5 μg in 5 μl) or vehicle (FIG. 4B). […] In contrast to stress effects, however, no labeling of pyramidal neurons or their processes was observed after icy CRF injections.

[4] = test system: interstitial fluid levels of Aβ; conditions: central CRF administration; APP transgenic mice; Kang et al., 2007; cited from earlier work
[5] = Gerhlert et al., 2007; cited from earlier work
[6] = Gerhlert et al., 2007; cited from earlier work; remark: listed apart in the source

## CCCCN(CC)c1nc(C)nc2c1c(C)c(C)n2-c1c(C)cc(C)cc1C [antalarmin]
[1]; antalarmin 20 mg/kg ip 20 min before 30 min acute restraint, hippocampal extracts 20 min post-stress
  stress-induced increments in tau phosphorylation at the AT8 and PHF-1 sites: prevented stress-induced increments in phosphorylation at both sites; also recorded: blocked the stress-induced increment
[1]; antalarmin 20 mg/kg ip, unstressed mice, hippocampal extracts, relative to untreated controls
  basal levels of tau-P at the AT8 or PHF-1 sites: Neither antalarmin nor the vehicle used for its administration significantly altered basal levels of tau-P; also recorded: did not affect basal levels of phosphorylation
[2]; both stressed and unstressed PS/APP mice, cerebral cortex
  density of plaques (change by antagonist treatment): significantly reduced
[2]; stressed (CVS) PS/APP mice
  density of plaques in cortex and hippocampus: 2.49 /mm^2
[2]; unstressed PS/APP mice
  density of plaques in cortex and hippocampus: 1.15 /mm^2

## CRF: synthetic mouse/human corticotropin-releasing factor peptide, injected icv (SEEPPISLDLTFHLLREVLEMARAEQLAQQAHSNRKLMEII)
[3]; CRF-R1-/- mice
  hippocampal tau-P (PHF-1 labeling) after icv CRF: comparable to the low level seen in saline-injected controls
[3]; CRF-R2-/- mice
  hippocampal tau-P (PHF-1 immunoreactivity) after icv CRF: robust increases in hippocampal tau-P
[3]; wt mice
  hippocampal tau-P (PHF-1 immunoreactivity) after icv CRF: robust increases in hippocampal tau-P
[4]
  interstitial fluid levels of Aβ: can increase interstitial fluid levels of Aβ

## CCC(CC)c1cc(C)nn2c(-c3sc(N4CCOCC4)nc3Cl)c(C)nc12 [MTIP, 3-(4-Chloro-2-Morpholin-4-yl-Thiazol-5-yl)-8-(1-Ethylpropyl)-2,6-Dimethyl-Imidazo[1,2b]Pyridazine]
[5]
  solubility: favorable solubility
[6]
  ability to cross the BBB: has the ability to cross the BBB
